Three compounds from US20220125778A1 (priority 2019, published 2022) can be followed below.

Broadly, the IC50 is the concentration that gives 50% inhibition.

Sequence of Purified bacterial β-glucuronidases (Purified GUS) (P05804 whole entry): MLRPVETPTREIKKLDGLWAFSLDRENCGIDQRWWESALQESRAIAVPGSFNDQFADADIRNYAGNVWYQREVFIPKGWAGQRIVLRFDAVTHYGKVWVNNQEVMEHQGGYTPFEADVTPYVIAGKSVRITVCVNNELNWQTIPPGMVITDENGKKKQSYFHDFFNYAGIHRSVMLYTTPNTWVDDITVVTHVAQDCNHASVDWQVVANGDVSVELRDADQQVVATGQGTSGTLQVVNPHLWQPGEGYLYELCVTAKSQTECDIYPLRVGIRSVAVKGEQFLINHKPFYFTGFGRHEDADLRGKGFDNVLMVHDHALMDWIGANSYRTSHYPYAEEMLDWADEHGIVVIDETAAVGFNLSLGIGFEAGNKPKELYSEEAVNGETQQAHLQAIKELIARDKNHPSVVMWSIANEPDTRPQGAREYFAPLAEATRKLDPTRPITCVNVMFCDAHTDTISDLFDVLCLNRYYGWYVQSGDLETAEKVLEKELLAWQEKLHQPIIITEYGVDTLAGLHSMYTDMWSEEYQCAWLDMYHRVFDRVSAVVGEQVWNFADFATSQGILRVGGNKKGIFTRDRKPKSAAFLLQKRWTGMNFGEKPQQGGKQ

This test concerns the target Purified bacterial β-glucuronidases (Purified GUS) (UniProt P05804). It counts as biochemical. The conditions noted are these: read-out: Purified GUS Orignial IC50.
For the compound `Cc1cc(C)c2[nH]c(=O)c(CN(CCO)C(=O)Cc3ccccc3Br)cc2c1` [Ex. 4, 2-(2-bromophenyl)-N-[(6,8-dimethyl-2-oxo-1H-quinolin-3-yl)methyl]-N-(2-hydroxyethyl)acetamide], the concentration for half-maximal inhibition (IC50) turned out to be 920 nM.

`COc1ccc(Br)c(CC(=O)N(CCO)Cc2cc3cc(C)cc(C)c3[nH]c2=O)c1` [Ex. 12, 2-(2-bromo-5-methoxy-phenyl)-N-[(6,8-dimethyl-2-oxo-1H-quinolin-3-yl)methyl]-N-(2-hydroxyethyl)acetamide]: the IC50 worked out at 580 nM.

Regarding `Cc1cc(C)c2[nH]c(=O)c(CN(CCO)C(=O)Cc3ccccc3Cl)cc2c1` [Ex. 8, 2-(2-chlorophenyl)-N-[(6,8-dimethyl-2-oxo-1H-quinolin-3-yl)methyl]-N-(2-hydroxyethyl)acetamide], the IC50 is 570 nM.
